Here are results for 9 sequences from US8512709B2, “Modified amyloid β peptide” (The Chemo-Sero-Therapeutic Research Institue, priority 2008, dated 2013).

The experiment deals with Aβ peptide (1-40 amino acid sequence). Nature of the experiment: Anti-Aβ IgG antibody titer of murine serum after immunization with Aβ peptides (ELISA on immobilized Aβ 1-40). It is filed as in vivo, C57BL/6 mice. Particulars: for Antibody titer Animal No. 1 / Antibody titer Animal No. 2 / Antibody titer Animal No. 3 / Antibody titer Animal No. 4: C57BL/6 mouse serum, Day 7 from final 3rd immunization; for Antibody titer Animal No. 1 / Antibody titer Animal No. 2 / Antibody titer Animal No. 3 / Antibody titer Animal No. 4 / Antibody titer Mean: 100 μg/mouse; for Antibody titer Mean: mean of 4 mice, serum Day 7 from final 3rd immunization. On the technique in general: In an ELISA, binding on a coated surface is turned into a signal by an enzyme label.

[1] abbreviates: Example 2, result in words on Table 2.
[2] abbreviates: Example 1, result in words on Table 1.

Regarding “DAEFRHDSGYKGAIIGLMVGGC [1-10•28-38AACys, 1-10+28-38-amino acid Aβ peptide with addition of Cysteine]”, for the setting “Example 2”, the “Antibody titer Animal No. 1” value is listed as 19149 ng/mL, the “Antibody titer Animal No. 2” value was 34270 ng/mL, the “Antibody titer Animal No. 3” value is 108780 ng/mL and the “Antibody titer Animal No. 4” value is on record as 61824 ng/mL. Besides, the “Antibody titer Mean” value (Example 2) is reported as 56005.8 ng/mL. Moreover, the “induction of an antibody to Aβ” value under setting [1] is “observed”.

Consider “DAEFRHDSGYKGAIIGLMVGGVC [1-10•28-39AACys, 1-10+28-39-amino acid Aβ peptide with addition of Cysteine]”, for which, under “Example 2”, the “Antibody titer Animal No. 1” value was determined as 139361 ng/mL, the “Antibody titer Animal No. 2” value is given as 10808 ng/mL, the “Antibody titer Animal No. 3” value was found to be 13326 ng/mL and the “Antibody titer Animal No. 4” value is 230453 ng/mL. Besides, under “Example 2”, the “Antibody titer Mean” value is 98487.0 ng/mL. The “induction of an antibody to Aβ” value under setting [1] is recorded as “observed”.

For “DAEFRHDSGYKGAIIGLMVGGVVC [1-10•28-40AACys, 1-10+28-40-amino acid Aβ peptide with addition of Cysteine]”, where the note is “Example 2”, the “Antibody titer Animal No. 1” value was determined as 4560 ng/mL, the “Antibody titer Animal No. 2” value was determined as 148622 ng/mL, the “Antibody titer Animal No. 3” value worked out at 5118 ng/mL and the “Antibody titer Animal No. 4” value was determined as 4988 ng/mL. Besides, the “Antibody titer Mean” value (Example 2) was 40822.0 ng/mL. Further, under setting [1], the “induction of an antibody to Aβ” value is given as “observed”.

With “DAEFRHDSGYKGAIIGLMVGGVVIA [1-10•28-42AA, 1-10+28-42-amino acid Aβ peptide, without addition of cysteine, reference compound]”, under “Example 1”, the “Antibody titer Animal No. 1” value came out at 66 ng/mL, the “Antibody titer Animal No. 2” value was found to be 715 ng/mL, the “Antibody titer Animal No. 3” value is 3559 ng/mL and the “Antibody titer Animal No. 4” value is listed as 13 ng/mL. For the setting “Example 1”, the “Antibody titer Mean” value stood at 1088.5 ng/mL. For the same sequence, the “induction of an antibody to Aβ” value under setting [2] is “observed”.

For “DAEFRHDSGYKGAIIGLMVGGVVIAC [1-10•28-42AACys, 1-10+28-42-amino acid Aβ peptide with addition of Cysteine]”, where the note is “Example 1”, the “antibody titer against Aβ as compared to the peptide without addition of cysteine (1-10·28-42AA)” value is recorded as “higher antibody titer”, the “Antibody titer Animal No. 1” value worked out at 46266 ng/mL, the “Antibody titer Animal No. 2” value stood at 19854 ng/mL and the “Antibody titer Animal No. 3” value was 40681 ng/mL. Also, under “Example 1”, the “Antibody titer Animal No. 4” value is on record as 33 ng/mL and the “Antibody titer Mean” value worked out at 26708.6 ng/mL. Under setting [2], the “induction of an antibody to Aβ” value was “observed”. In addition, for the setting “Example 2”, the “Antibody titer Animal No. 1” value amounted to 32 ng/mL, the “Antibody titer Animal No. 2” value is listed as 30482 ng/mL, the “Antibody titer Animal No. 3” value came out at 33623 ng/mL and the “Antibody titer Animal No. 4” value was 2072 ng/mL. In addition, for the setting “Example 2”, the “Antibody titer Mean” value was found to be 16552.3 ng/mL. In addition, under setting [1], the “induction of an antibody to Aβ” value was “observed”. For the setting “Example 5”, the “Antibody titer Animal No. 1” value is listed as 886.2 ng/mL, the “Antibody titer Animal No. 2” value came out at 463379 ng/mL, the “Antibody titer Animal No. 3” value is reported as 414.8 ng/mL and the “Antibody titer Animal No. 4” value was 3314 ng/mL. In addition, the “Antibody titer Mean” value (Example 5) is 116998.5 ng/mL.

With “DAEFRHDSGYKGAIIGLMVGGVVIC [1-10•28-41AACys, 1-10+28-41-amino acid Aβ peptide with addition of Cysteine]”, under “Example 2”, the “Antibody titer Animal No. 1” value came out at 292 ng/mL, the “Antibody titer Animal No. 2” value is given as 1000 ng/mL, the “Antibody titer Animal No. 3” value is 48460 ng/mL and the “Antibody titer Animal No. 4” value is 422012 ng/mL. For the same sequence, the “Antibody titer Mean” value (Example 2) amounted to 117941.1 ng/mL. Under setting [1], the “induction of an antibody to Aβ” value was “observed”.

On to “DAEFRHDSKGAIIGLMVGC [1-8•28-37AACys, 1-8+28-37-amino acid Aβ peptide with addition of Cysteine]”, for which, where the note is “Example 3”, the “Antibody titer Animal No. 1” value was 16 ng/mL, the “Antibody titer Animal No. 2” value is reported as 16 ng/mL, the “Antibody titer Animal No. 3” value is recorded as 43 ng/mL and the “Antibody titer Animal No. 4” value turned out to be 31 ng/mL. Moreover, the “Antibody titer Mean” value (Example 3) was determined as 26.4 ng/mL.

Turning to “EFRHDSGYKGAIIGLMVGC (added cysteine) [3-10•28-37AACys, 3-10+28-37-amino acid Aβ peptide with addition of Cysteine]”, where the note is “Example 4”, the “Antibody titer Animal No. 1” value was 3203 ng/mL, the “Antibody titer Animal No. 2” value stood at 1456 ng/mL, the “Antibody titer Animal No. 3” value amounted to 4500 ng/mL and the “Antibody titer Animal No. 4” value is 52 ng/mL. The “Antibody titer Mean” value (Example 4) worked out at 2302.8 ng/mL. Besides, the “induction of an antibody to Aβ” value (Example 4, result in words on Table 4) is reported as “observed”.

For the sequence “FRHDSGYKGAIIGLMVGC (added cysteine) [4-10•28-37AACys, 4-10+28-37-amino acid Aβ peptide with addition of Cysteine]”, under “Example 4”, the “Antibody titer Animal No. 1” value was 24 ng/mL, the “Antibody titer Animal No. 2” value worked out at 31 ng/mL, the “Antibody titer Animal No. 3” value is on record as 53 ng/mL and the “Antibody titer Animal No. 4” value stood at 27 ng/mL. In addition, the “Antibody titer Mean” value (Example 4) is recorded as 33.8 ng/mL.
